From patent EP0075029A1, “AGENT FOR TREATING CHRONIC OBLITERATIVE LUNG DISEASE” (priority 1981, dated 1982)
Structures can show the parent of a compound that is named as a salt.

Columns and labels:
[1] = system: blood-perfused trachea in situ; experiment: Blood-perfused trachea in situ (Himori and Taira): tracheal blood flow and inside pressure of the trachea; type: in vivo; settings: intraarterial injection, dogs
Description: The cervix of each dog was medisected to expose the pharynx and the upper part of the trachea.
The blood was introduced from the femoral artery by a peristaltic pump, and a part of the blood stream was by-passed to the downstream of the femoral artery through a Starling's air resistance tube provided parallel to the vascular bed of the trachea, thereby performing the perfusion under a constant pressure. The pressure of the perfusion was kept a little higher than the mean aortic blood pressure.
On the other hand, water was placed into the cuff of a tracheal tube equipped with a cuff, and the tube was inserted into the trachea. Then, the inside pressure of the cuff was measured by a pressure transducer to determine the inside pressure of the trachea as follows. Initially, water was placed in the cuff in such a manner that the static inside pressure of the trachea was about 40 cm H20. During the experiment, the tonus (the inside pressure of the trachea) of the tracheal smooth muscles in stationary phases was maintained by continuous intraarterial injections of 3 pg each of neostigmine into the vascular bed of the trachea at 30-minute intervals.
As an index of the selectivity of the dilating activity for trachea, the ratio of the increase of the blood flow in the trachea to the decrease of the inside pressure of the trachea was determined.

bronchi in situ = experiment: animal or person; settings: Canis lupus familiaris, iv, read-out: Percent inhibition
Experimental: The experiment was carried out in accordance with the Konzett-R6essler's method [Konzett, H. and Roessler, R: Arch. Exp. Pathol.
Six mongrel adult dogs were anesthetized with pentobarbital sodium (30 mg/kg). A tracheal cannula was inserted, and under artificial respiration, holes were incised in the right and left pleurae to equalize the pressure of the pleural cavity to the atmospheric pressure. The amount of air which overflowed by inspiration against a pressure of 10±1 cm H20 applied from the branch of the cannula was measured by a pneumotachograph.

SMILES	effect on blood flow in the trachea and inside pressure of the trachea [1]	inhibition at 3 mg/kg (bronchi in situ) [%]
CC(C)NCC(O)c1ccc(O)c(O)c1 (single isomer, unassigned; (-)) [isoproterenol, (-) isoproterenol hydrochloride]	increased the blood flow in the trachea and reduced the inside pressure of the trachea in a dose dependent manner	
Cn1c(=O)c2[nH]cnc2n(C)c1=O [Theophylline, theophylline]	increased the blood flow in the trachea and reduced the inside pressure of the trachea in a dose dependent manner	56
